Assay results reported in patent publication US20060111341A1, “Use of galanthamine and the derivatives thereof in the production of medicaments” (priority 2003, published 2006).

Tests used:
Acetylcholinesterase = Acetylcholinesterase (Homo sapiens, UniProt P22303); assay: biochemical
Butyrylcholinesterase = Butyrylcholinesterase (Homo sapiens, UniProt P06276); assay: biochemical
Butyrylcholinesterase, sequence (P06276 29-602): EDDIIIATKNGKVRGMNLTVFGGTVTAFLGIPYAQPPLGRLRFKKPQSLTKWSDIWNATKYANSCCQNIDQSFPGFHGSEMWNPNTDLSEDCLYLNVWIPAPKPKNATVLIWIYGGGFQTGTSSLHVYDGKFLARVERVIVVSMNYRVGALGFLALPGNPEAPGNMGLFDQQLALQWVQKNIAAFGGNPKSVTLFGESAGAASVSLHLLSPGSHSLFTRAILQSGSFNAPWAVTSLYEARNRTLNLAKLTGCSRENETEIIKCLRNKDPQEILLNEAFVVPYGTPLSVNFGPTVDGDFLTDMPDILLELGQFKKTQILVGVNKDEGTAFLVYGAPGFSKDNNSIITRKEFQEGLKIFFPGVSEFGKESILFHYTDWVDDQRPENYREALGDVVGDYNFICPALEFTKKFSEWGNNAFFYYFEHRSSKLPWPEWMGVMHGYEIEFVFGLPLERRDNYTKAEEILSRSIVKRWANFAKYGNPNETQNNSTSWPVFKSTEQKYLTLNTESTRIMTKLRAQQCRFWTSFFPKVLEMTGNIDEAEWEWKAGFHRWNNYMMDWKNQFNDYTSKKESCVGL

Acetylcholinesterase, sequence (P22303 32-614): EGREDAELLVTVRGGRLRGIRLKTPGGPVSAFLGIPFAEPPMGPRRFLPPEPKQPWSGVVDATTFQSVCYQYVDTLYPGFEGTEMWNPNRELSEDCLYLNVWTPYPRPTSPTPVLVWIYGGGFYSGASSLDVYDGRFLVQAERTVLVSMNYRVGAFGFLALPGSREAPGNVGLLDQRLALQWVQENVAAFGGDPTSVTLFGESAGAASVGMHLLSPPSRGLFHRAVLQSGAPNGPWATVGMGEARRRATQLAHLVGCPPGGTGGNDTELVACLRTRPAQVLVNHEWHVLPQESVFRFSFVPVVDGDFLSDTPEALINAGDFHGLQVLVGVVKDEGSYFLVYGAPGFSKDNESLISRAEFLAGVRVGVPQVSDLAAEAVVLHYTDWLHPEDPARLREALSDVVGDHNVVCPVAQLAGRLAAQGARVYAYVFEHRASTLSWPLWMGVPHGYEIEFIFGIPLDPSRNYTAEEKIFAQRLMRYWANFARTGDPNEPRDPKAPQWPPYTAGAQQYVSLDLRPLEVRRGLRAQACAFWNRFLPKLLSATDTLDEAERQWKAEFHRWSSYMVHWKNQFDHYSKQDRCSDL

Row | SMILES | IC50 (Acetylcholinesterase) | IC50 (Butyrylcholinesterase)
1 | COc1cc(C)c2c3c1OC1C[C@H](O)C=CC31CC[N+](C)(Cc1ccc(C(F)(F)F)cc1)C2 (mixture of isomers) [Nr 105] | 60 µM | 5.4 µM
2 | COc1ccc2c3c1O[C@H]1C[C@@H](O)C=C[C@@]31CC[N+](C)(Cc1ccc(Br)cc1)C2 (stereo partly shown) [Nr 58] | 0.2 µM | 0.6 µM
3 | COc1ccc2c3c1O[C@H]1C[C@@H](O)C=C[C@@]31CC[N+](C)(CC1CC1)C2 (stereo partly shown) [Nr 53] | 1.2 µM | 3.6 µM
4 | COc1ccc2c3c1OC1C[C@@H](O)C=CC31CCN(CCC(=O)NC(C)C)C2 (mixture of isomers) [Nr 109] | 54.5 µM | 36 µM
5 | COc1ccc2c3c1OC1C[C@@H](O)C=CC31CCN(C(=O)NC(C)C)C2 (mixture of isomers) [Nr 75] | 4.2 µM | > 100 µM
6 | COc1ccc2c3c1O[C@H]1C[C@@H](O)C=C[C@@]31CCN(CCN)C2 [Nr 141] | 1.3 µM | 2.1 µM
7 | COc1ccc2c3c1O[C@H]1C[C@@H](O)C=C[C@@]31CCN(C1CCN(C(=O)c3ccccc3)CC1)C2 [Nr 148] | 24 µM | 3 µM
8 | COc1cc(Br)c2c3c1OC1C[C@@H](O)C=CC31CCN(CC#N)C2 (mixture of isomers) [Nr 19] | > 100 µM | 70 µM
9 | COc1cc(C)c2c3c1OC1C[C@@H](O)C=CC31CCN(C)C2 (mixture of isomers) [Nr 63] | > 100 µM | 17 µM
10 | COc1cc(C)c2c3c1OC1C[C@@H](O)C=CC31CCN(CCN1CCOCC1)C2 (mixture of isomers) [Nr 65] | > 100 µM | 5.2 µM
11 | COc1ccc2c3c1OC1C[C@@H](O)C=CC31CCN(CCCN1CC3CC1CN3c1ccc(F)cc1)C2 (mixture of isomers) [Nr 61] | 5.2 µM | 5 µM
12 | COc1ccc2c3c1O[C@H]1C[C@@H](O)C=C[C@@]31CCN(CCCN1CC3CC1CN3c1ccc(F)cc1)C2 (stereo partly shown) [Nr 142] | 3 µM | 2.4 µM
13 | COc1ccc2c3c1O[C@H]1C[C@@H](O)C=C[C@@]31CCN(C(=O)NC(C)(C)C)C2 [Nr 115] | 2.5 µM | 7 µM
14 | CNC(=S)N1CCC23C=C[C@H](O)CC2Oc2c(OC)ccc(c23)C1 (mixture of isomers) [Nr 73] | 23 µM | 30 µM
15 | CNC(=S)N1CC[C@@]23C=C[C@H](O)C[C@@H]2Oc2c(OC)ccc(c23)C1 [Nr 129] | 18.5 µM | 63 µM
16 | COc1ccc2c3c1O[C@H]1C[C@@H](O)C=C[C@@]31CCN(c1ccccc1)C2 [Nr 123] | 0.5 µM | 0.24 µM
17 | COc1ccc2c3c1O[C@H]1C[C@@H](O)C=C[C@@]31CCN(/C(=N/C#N)SC)C2 [Nr 117] | 6.7 µM | 30 µM
18 | COC(=O)/C=C(\C(=O)OC)N1CCC23C=C[C@H](O)CC2Oc2c(OC)ccc(c23)C1 (mixture of isomers) [Nr 108] | 140 µM | 80 µM
19 | COc1ccc2c3c1OC1C[C@@H](O)C=CC31CCN(C(=O)Nc1ccc(Cl)cc1)C2 (mixture of isomers) [Nr 92] | 24 µM | > 100 µM
20 | COc1ccc2c3c1OC1C[C@@H](O)C=CC31CCN(c1nccc(Cl)n1)C2 (mixture of isomers) [Nr 89] | 66 µM | > 100 µM
21 | COc1ccc2c3c1OC1C[C@@H](O)C=CC31CCN(Cc1ccccc1)C2 (mixture of isomers) [Nr 41] | 0.7 µM | 0.65 µM
22 | COc1ccc2c3c1O[C@H]1C[C@@H](O)C=C[C@@]31CCN(CN(NC(=O)OC(C)(C)C)C(=O)OC(C)(C)C)C2 [Nr 160] | 3.6 µM | 20 µM

Row | SMILES | IC50 (Acetylcholinesterase) | IC50 (Butyrylcholinesterase)
23 | CCCCNC(=O)O[C@H]1C=C[C@@]23CCN(C)Cc4ccc(OC)c(c42)O[C@H]3C1 [Nr 1] | > 100 µM | 4.8 µM
24 | C=CC[N+]1(C)CCC23C=C[C@@H](O)CC2Oc2c(OC)cc(C)c(c23)C1 (mixture of isomers) [Nr 104] | > 100 µM | 52 µM
25 | CCOC(=O)C(=O)N1CCC23C=C[C@H](O)CC2Oc2c(OC)cc(Br)c(c23)C1 (mixture of isomers) [Nr 20] | 32 µM | 11 µM
26 | COc1cc(Br)c2c3c1O[C@@H]1C[C@H](O)C=C[C@]31CCN(C(=O)CCN1CCCC1)C2 [Nr 271] | > 100 µM | 66 µM
27 | COc1ccc2c3c1OC1C[C@@H](O)C=CC31CCN(CC#N)C2 (mixture of isomers) [Nr 37] | 30 µM | > 100 µM
28 | COc1ccc2c3c1O[C@H]1C[C@@H](O)C=C[C@@]31CCN(C(N)=O)C2 [Nr 113] | 44 µM | > 100 µM
29 | COc1ccc2c3c1O[C@@H]1C[C@H](O)C=C[C@]31CCN(CCCN1CCCCC1)C2 [Nr 153] | 9 µM | 23 µM
30 | COc1cc(N(C)C)c2c3c1O[C@H]1C[C@@H](O)C=C[C@@]31CCN(C)C2 [Nr 56] | > 100 µM | 0.47 µM
31 | COc1ccc2c3c1O[C@H]1C[C@@H](O)C=C[C@@]31CCN(CCCO)C2 [Nr 144] | 2.8 µM | 5 µM
32 | COc1ccc2c3c1OC1C[C@@H](O)C=CC31CCN(C(=O)N[C@H](C)c1ccccc1)C2 (mixture of isomers) [Nr 112] | 30 µM | > 100 µM
33 | COc1ccc2c3c1OC1C[C@@H](O)C=CC31CCN(/C(=N/C#N)SC)C2 (mixture of isomers) [Nr 79] | 25 µM | 0.54 µM
34 | COc1ccc2c3c1O[C@H]1C[C@@H](O)C=C[C@@]31CCN(CCC(=O)O)C2 [Nr 120] | 42 µM | 40 µM
35 | COc1cc(C)c2c3c1O[C@H]1C[C@H](O)C=C[C@@]31CCN(CCCN1CCCCC1)C2 [Nr 138] | > 100 µM | 70 µM
36 | COc1cc(C)c2c3c1OC1C[C@@H](O)C=CC31CCN(CCCN1CCCCC1)C2 (mixture of isomers) [Nr 64] | 46 µM | 0.6 µM
37 | COc1ccc2c3c1O[C@H]1C[C@@H](OC(=S)Nc4ccccc4)C=C[C@@]31CCN(C)C2 [Nr 179] | 51 µM | 30 µM
38 | COc1cc(Br)c2c3c1OC1C[C@@H](O)C=CC31CCN(Cc1ccccc1)C2 (mixture of isomers) [Nr 38] | > 100 µM | 0.24 µM
39 | COc1ccc2c3c1O[C@@H]1C[C@H](O)C=C[C@]31CC[N+](C)(CCN1CCOCC1)C2 (stereo partly shown) [Nr 12] | 57 µM | 13 µM
40 | CN1CC[C@@]23C=C[C@H](O)C[C@@H]2Oc2c(Oc4ccccc4)ccc(c23)C1 [Nr 118] | 21 µM | 3.4 µM
41 | COc1ccc2c3c1O[C@H]1C[C@@H](O)C=C[C@@]31CCN(C(=O)Oc1ccccc1)C2 [Nr 137] | 46 µM | > 100 µM
42 | COc1ccc2c3c1O[C@H]1C[C@@H](O)C=C[C@@]31CCN(CC(=O)N1CC3CC1CN3c1ccccc1)C2 (stereo partly shown) [Nr 143] | 8.4 µM | 2.4 µM
43 | COc1ccc2c3c1O[C@H]1C[C@@H](O)C=C[C@@]31CCN(CCCN1CCCCC1)C2 [Nr 128] | 0.3 µM | 1.5 µM
44 | C=CCN1CCC23C=C[C@H](O)CC2Oc2c(OC)ccc(c23)C1 (mixture of isomers) [Nr 40] | 3.3 µM | 3.1 µM

Row | SMILES | IC50 (Acetylcholinesterase) | IC50 (Butyrylcholinesterase)
45 | COc1cc(C)c2c3c1OC1C[C@@H](O)C=CC31CC[N+](C)(C)C2 (mixture of isomers) [Nr 107] | > 100 µM | 14 µM
46 | COc1ccc2c3c1OC1C[C@@H](O)C=CC31CCN(C(=O)Nc1ccccc1)C2 (mixture of isomers) [Nr 76] | 70 µM | > 100 µM
47 | COc1cc(Br)c2c3c1OC1C[C@@H](O)C=CC31CCN(CC(N)=O)C2 (mixture of isomers) [Nr 27] | > 100 µM | 15 µM
48 | COc1ccc2c3c1O[C@H]1C[C@H](N)C=C[C@@]31CCN(C)C2 [Nr 84] | 40 µM | 6 µM
49 | C=C(C)C[N+]1(C)CCC23C=C[C@H](O)CC2Oc2c(OC)cc(C)c(c23)C1 (mixture of isomers) [Nr 67] | 70 µM | 2.4 µM
50 | COc1ccc2c3c1OC1C[C@@H](O)C=CC31CCN(CCCN)C2 (mixture of isomers) [Nr 90] | 3.4 µM | 11 µM
51 | COc1ccc2c3c1O[C@H]1C[C@@H](O)C=C[C@@]31CCN(CCCCN1C(=O)c3ccccc3S1(=O)=O)C2 [Nr 161] | 0.022 µM | 1.5 µM
52 | COc1cc2c(cc1OC)C(=O)C(CCCCCN1CC[C@@]34C=C[C@H](O)C[C@@H]3Oc3c(OC)ccc(c34)C1)C2 (stereo partly shown) [Nr 158] | 0.0052 µM | 0.24 µM
53 | CCN(CC)c1nc(N(CC)CC)nc(N2CCC34C=C[C@H](O)CC3Oc3c(OC)ccc(c34)C2)n1 (mixture of isomers) [Nr 95] | 40 µM | > 100 µM
54 | COc1cc2c(cc1OC)C(=O)C(CCCCN1CC[C@@]34C=C[C@H](O)C[C@@H]3Oc3c(OC)ccc(c34)C1)C2 (stereo partly shown) [Nr 154] | 0.02 µM | 0.8 µM
55 | COc1ccc2c3c1O[C@H]1C[C@@H](O)C=C[C@@]31CCN(C)C2C (stereo partly shown) [Nr 135] | 4.2 µM | 25 µM
56 | C#CC[N+]1(C)CC[C@@]23C=C[C@H](O)C[C@@H]2Oc2c(OC)ccc(c23)C1 (stereo partly shown) [Nr 16] | 1.4 µM | 1.7 µM
57 | COc1cc(Br)c2c3c1OC1C[C@@H](O)C=CC31CCN(CCC#N)C2 (mixture of isomers) [Nr 72] | > 100 µM | 43 µM
58 | COc1cc([N+](=O)[O-])c2c3c1O[C@H]1C[C@@H](O)C=C[C@@]31CCN(C)C2 [Nr 45] | > 100 µM | 25 µM
59 | CCCN1CC[C@@]23C=C[C@H](O)C[C@@H]2Oc2c(OC)ccc(c23)C1 [Nr 155] | 0.3 µM | 1.5 µM
60 | COc1ccc2c3c1OC1C[C@@H](O)C=CC31CCN(CCO)C2 (mixture of isomers) [Nr 34] | 14 µM | 26 µM
61 | COc1cc(Br)c2c3c1OC1C[C@@H](O)C=CC31CCN(CCO)C2 (mixture of isomers) [Nr 33] | 34 µM | 6.4 µM
62 | COc1cc(C)c2c3c1OC1C[C@@H](O)C=CC31CCN(C)C2C#N (mixture of isomers) [Nr 145] | 80 µM | > 100 µM
63 | COc1ccc2c3c1OC1C[C@@H](O)C=CC31CCN(c1ncccn1)C2 (mixture of isomers) [Nr 85] | 38 µM | 30 µM
64 | C=CCN1CCC23C=C[C@H](O)CC2Oc2c(OC)cc(C)c(c23)C1 (mixture of isomers) [Nr 62] | > 100 µM | 2.3 µM
65 | COc1ccc2c3c1OC1C[C@@H](O)C=CC31CCN(CCCO)C2 (mixture of isomers) [Nr 81] | 7.2 µM | 21 µM
